From patent US6011135A, “Triazine thiol derivative having a perfluoro group, method for producing same and use of same” (Iwate University, priority 1997, dated 2000)

Key:
Format in all cases: physicochemical
[1] = Critical micelle concentration (surface activity)
Excerpt: (§1) In Table 5 below, there is shown the effectiveness of 6-perfluoro alkylamino-1,3,5-triazine-2,4-dithiol of examples of the present invention by comparing the dissociation constants, oxidation potential and critical micelle concentration with those of the comparative example.
(§2) With respect to the dissociation constants (pKa1, pKa2), which may function as a yardstick for reactivity, all the examples of the present invention have lower dissociation constants than the comparative example. Accordingly, it is understood that the triazine thiol derivative having a perfluoro group of the present invention has an excellent reactivity. With regard to the oxidation potential which functions as a yardstick for easiness of tribological polymerization and electrolytic polymerization, each example has a lower oxidation potential than the comparative example. This means that an oxidative polymerization of the triazine thiol derivative having a perfluoro group according to the present invention is easier than that of the comparative example. Further, the critical micelle concentration of every example is lower than that of the comparative example. This means that micelle formation is easier in the examples and thus, the triazine thiol derivative having a perfluoro group according to the present invention has an excellent surface activity.

[2] = Oxidation potential, yardstick for easiness of tribological and electrolytic polymerization
Excerpt: as §1, §2

[3] = Solubility of 6-perfluoro alkylamino-1,3,5-triazine-2,4-dithiol to various solvents; design: key to Solubility, Toluene: X: did not solved; Δ: slightly solved (1 wt % or less); .largecircle.: sufficiently solved (1-10 wt %); .circleincircle.: excellently solved (10 wt % or more)
[4] = Dissociation constants (pKa1, pKa2), yardstick for reactivity; conditions: dissociation constant
Excerpt: as §1, §2

Structure (SMILES) | Critical micelle concentration [1] [mol/L] | Oxidation potential [2] [V vs. Ag^+ /Ag] | Solubility, MEK [3] | Solubility, Acetic ether [3] | Solubility, Ethanol [3] | Solubility, Toluene [3] | Solubility, Water [3] | pKa1 [4] | pKa2 [4]
CCCCN(CC(F)(F)C(F)(F)C(F)(F)C(F)(F)C(F)(F)C(F)(F)C(F)(F)F)c1nc(S)nc(S)n1 [Example 12] | 2.1e-05 | 0.46 | .circleincircle. (excellently solved (10 wt % or more)) | .largecircle. (sufficiently solved (1-10 wt %)) | .largecircle. (sufficiently solved (1-10 wt %)) | .largecircle. (sufficiently solved (1-10 wt %)) | .largecircle. (sufficiently solved (1-10 wt %)) | 7.4 | 10.4
CCCCN(CC(F)(F)C(F)(F)C(F)(F)C(F)(F)C(F)(F)C(F)(F)C(F)(F)C(F)(F)C(F)(F)C(F)(F)F)c1nc(S)nc(S)n1 [Example 14] | 1.1e-05 | 0.56 | .circleincircle. (excellently solved (10 wt % or more)) | .largecircle. (sufficiently solved (1-10 wt %)) | .largecircle. (sufficiently solved (1-10 wt %)) | .largecircle. (sufficiently solved (1-10 wt %)) | .largecircle. (sufficiently solved (1-10 wt %)) | 7.5 | 9.8
FC(F)(F)C(F)(F)C(F)(F)C(F)(F)C(F)(F)C(F)(F)C(F)(F)CN(c1nc(S)nc(S)n1)C1CCCCC1 [Example 13] | 5.6e-05 | 0.78 | .circleincircle. (excellently solved (10 wt % or more)) | .largecircle. (sufficiently solved (1-10 wt %)) | .largecircle. (sufficiently solved (1-10 wt %)) | .largecircle. (sufficiently solved (1-10 wt %)) | .largecircle. (sufficiently solved (1-10 wt %)) | 6.2 | 10.6
FC(F)(F)C(F)(F)C(F)(F)C(F)(F)C(F)(F)C(F)(F)C(F)(F)CNc1nc(S)nc(S)n1 [Example 11] | 0.0021 | 0.62 | .largecircle. (sufficiently solved (1-10 wt %)) | Δ (slightly solved (1 wt % or less)) | .largecircle. (sufficiently solved (1-10 wt %)) | Δ (slightly solved (1 wt % or less)) | .largecircle. (sufficiently solved (1-10 wt %)) | 8.1 | 10.3
FC(F)(F)C(F)(F)C(F)(F)C(F)(F)C(F)(F)C(F)(F)C(F)(F)c1ccc(Nc2nc(S)nc(S)n2)cc1 [Comparative example, reference compound] | 0.022 | 0.90 | Δ (slightly solved (1 wt % or less)) | Δ (slightly solved (1 wt % or less)) | Δ (slightly solved (1 wt % or less)) | X | Δ (slightly solved (1 wt % or less)) | 8.3 | 10.7
